Read-outs that look alike come from different tables or passages of the source.
How the values were obtained:
TLR7 = TLR7 (Homo sapiens (Human), UniProt Q9NYK1); assay: TLR7 human peripheral blood mononuclear cell (PBMC) cell-based assay (GS-986 as agonist; IL-6 and IFNα readout); details: TLR7 agonist GS-986 at 400 nM, 6 hours, antagonist potency
Procedure, shortened: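 IL-6 and IFNα released into supernatant were quantified by electrochemiluminescence immunoassay. Before that, human PBMCs at 100,000 per well received a 10-point antagonist titration for 1 h, then TLR7 agonist for 6 more hours, all at 37 °C, 5% CO2.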

TLR8 = TLR8 (Homo sapiens (Human), UniProt Q9NR97); assay: TLR8 human peripheral blood mononuclear cell (PBMC) cell-based assay (Compound A as agonist; TNFα and IL12p40 readout); details: TLR8 agonist Compound A at 800 nM, 6 hours, antagonist potency
[1] = human PBMCs, read-out: TLR-7 EC50
[2] = human PBMCs, read-out: TLR-8 EC50

TLR8, sequence (Q9NR97 27-1041): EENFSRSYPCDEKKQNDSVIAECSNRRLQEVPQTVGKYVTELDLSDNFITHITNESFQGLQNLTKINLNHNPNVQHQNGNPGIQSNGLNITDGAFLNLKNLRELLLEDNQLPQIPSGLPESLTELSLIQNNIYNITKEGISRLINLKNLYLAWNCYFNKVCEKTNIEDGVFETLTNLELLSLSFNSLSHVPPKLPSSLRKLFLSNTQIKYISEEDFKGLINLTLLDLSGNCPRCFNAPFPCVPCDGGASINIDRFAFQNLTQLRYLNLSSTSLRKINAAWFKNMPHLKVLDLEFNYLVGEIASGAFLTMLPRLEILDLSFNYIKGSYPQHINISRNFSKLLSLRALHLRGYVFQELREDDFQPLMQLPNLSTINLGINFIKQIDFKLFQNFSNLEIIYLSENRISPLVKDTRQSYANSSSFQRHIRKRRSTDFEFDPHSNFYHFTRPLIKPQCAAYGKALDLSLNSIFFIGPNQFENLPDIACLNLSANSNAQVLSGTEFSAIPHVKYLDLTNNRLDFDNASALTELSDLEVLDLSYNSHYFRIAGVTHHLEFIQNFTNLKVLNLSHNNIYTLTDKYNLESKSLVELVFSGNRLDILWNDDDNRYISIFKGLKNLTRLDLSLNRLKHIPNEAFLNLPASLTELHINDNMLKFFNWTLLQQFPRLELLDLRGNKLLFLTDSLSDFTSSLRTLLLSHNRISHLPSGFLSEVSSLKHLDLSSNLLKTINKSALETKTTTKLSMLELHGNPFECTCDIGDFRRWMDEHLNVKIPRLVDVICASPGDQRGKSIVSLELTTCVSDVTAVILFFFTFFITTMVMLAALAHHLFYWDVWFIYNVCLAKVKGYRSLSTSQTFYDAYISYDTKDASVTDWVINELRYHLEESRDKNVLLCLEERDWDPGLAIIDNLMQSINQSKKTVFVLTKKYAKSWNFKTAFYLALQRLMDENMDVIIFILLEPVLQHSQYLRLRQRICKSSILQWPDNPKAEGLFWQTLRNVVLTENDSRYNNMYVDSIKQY
TLR7, sequence (Q9NYK1 27-1049): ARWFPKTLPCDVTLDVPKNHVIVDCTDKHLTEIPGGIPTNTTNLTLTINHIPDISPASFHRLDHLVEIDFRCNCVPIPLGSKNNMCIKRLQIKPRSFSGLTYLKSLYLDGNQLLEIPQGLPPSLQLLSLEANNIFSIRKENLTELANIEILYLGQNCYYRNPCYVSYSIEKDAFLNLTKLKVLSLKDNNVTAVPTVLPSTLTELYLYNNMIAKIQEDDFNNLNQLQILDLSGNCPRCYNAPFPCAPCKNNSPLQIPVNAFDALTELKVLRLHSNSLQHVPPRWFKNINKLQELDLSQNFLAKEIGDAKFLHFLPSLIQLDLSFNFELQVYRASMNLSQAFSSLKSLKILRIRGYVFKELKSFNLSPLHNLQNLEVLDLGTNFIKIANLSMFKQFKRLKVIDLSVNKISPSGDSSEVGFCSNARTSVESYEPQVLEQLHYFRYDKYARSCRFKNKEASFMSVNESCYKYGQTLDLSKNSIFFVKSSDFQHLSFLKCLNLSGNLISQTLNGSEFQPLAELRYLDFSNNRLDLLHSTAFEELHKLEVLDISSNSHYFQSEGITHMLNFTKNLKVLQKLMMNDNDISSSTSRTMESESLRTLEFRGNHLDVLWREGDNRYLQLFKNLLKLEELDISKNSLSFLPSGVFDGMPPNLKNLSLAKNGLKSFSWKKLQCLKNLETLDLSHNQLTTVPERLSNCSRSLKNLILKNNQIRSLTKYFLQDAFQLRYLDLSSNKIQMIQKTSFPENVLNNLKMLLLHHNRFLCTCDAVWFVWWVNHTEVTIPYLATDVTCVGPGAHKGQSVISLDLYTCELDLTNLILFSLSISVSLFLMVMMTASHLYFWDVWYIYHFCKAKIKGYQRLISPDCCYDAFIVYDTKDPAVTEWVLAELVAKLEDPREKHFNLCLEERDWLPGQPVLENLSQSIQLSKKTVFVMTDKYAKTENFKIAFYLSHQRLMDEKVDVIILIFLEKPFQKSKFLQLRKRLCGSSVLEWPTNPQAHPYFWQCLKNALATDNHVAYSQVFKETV

Row | SMILES | EC50 (TLR7; [1]) [nM] | EC50 (TLR8; [2]) [nM] | EC50 (TLR7; TLR-7 EC50, human PBMCs) [nM] | EC50 (TLR8; TLR-8 EC50, human PBMCs) [nM]
1 | Cc1c(C2C3CN(CC(N)=O)CC32)sc2[nH]c(-c3cc(C)c4ncnn4c3)c(C(C)C)c12 (centres unmarked) [Example 202] | 2.59 | 2.97 | – | –
2 | Cc1c(CCC2CCN(CC(N)=O)CC2)sc2[nH]c(-c3cc(C)c4ncnn4c3)c(C(C)C)c12 [Example 203] | 4.2 | 6.23 | – | –
3 | Cc1c(C23CCNCC2C3(F)F)sc2[nH]c(-c3cc(C)c4ncnn4c3)c(C(C)C)c12 (centres unmarked) [Example 204] | 0.5 | 30.4 | – | –
4 | Cc1c(C23CCN(CC(N)=O)CC2C3(F)F)sc2[nH]c(-c3cc(C)c4ncnn4c3)c(C(C)C)c12 (centres unmarked) [Example 205] | 0.6 | 230 | – | –
5 | CCc1c(C2CCN(CC(N)=O)CC2)sc2[nH]c(-c3cc(C)c4ncnn4c3)c(C(C)C)c12 [Example 206] | 0.18 | 45.1 | – | –
6 | CCc1c(C2CCN(C(=O)[C@@H]3COCCN3)CC2)sc2[nH]c(-c3cc(C)c4ncnn4c3)c(C(C)C)c12 [Example 207] | 0.19 | 32.2 | – | –
7 | CCc1c(C2CCN(C(=O)[C@H]3COCCN3)CC2)sc2[nH]c(-c3cc(C)c4ncnn4c3)c(C(C)C)c12 [Example 208] | 0.15 | 34.6 | – | –
8 | Cc1c(C2CC23CCNCC3)sc2[nH]c(-c3cc(C)c4ncnn4c3)c(C(C)C)c12 (centres unmarked) [Example 209] | 0.94 | 10.7 | – | –
9 | Cc1c(CC2CCN(CC(N)=O)CC2)sc2[nH]c(-c3cc(C)c4ncnn4c3)c(C(C)C)c12 [Example 210] | 2.32 | 10 | – | –
10 | Cc1c(C2CC23CCN(CC(N)=O)CC3)sc2[nH]c(-c3cc(C)c4ncnn4c3)c(C(C)C)c12 (centres unmarked) [Example 211] | 5.08 | 30.9 | – | –
11 | Cc1c(-c2[nH]c3sc(C45CCN(CCS(C)(=O)=O)CC4C5)c(C)c3c2C(C)C)cn2ncnc2c1C (centres unmarked) [Example 217] | 1.27 | 78.6 | – | –
12 | Cc1c(-c2[nH]c3sc([C@@H]4C[C@@H]5C[C@H]4CN5CCS(C)(=O)=O)cc3c2C(C)C)cn2ncnc2c1C [Example 218] | 0.45 | 0.88 | – | –
13 | Cc1c(-c2[nH]c3sc(C4CCNCC4)cc3c2C(C)C)cn2ncnc2c1C [Example 219] | 0.26 | 3.01 | – | –
14 | Cc1c(-c2[nH]c3sc([C@@H]4C[C@@H]5C[C@H]4CN5)cc3c2C(C)C)cn2ncnc2c1C [Example 220] | 0.11 | 0.64 | – | –
15 | Cc1c(-c2[nH]c3sc(-c4cccc(C5CCNCC5)c4)c(C)c3c2C(C)C)cn2ncnc2c1C [Example 222] | 8.47 | 79.3 | – | –
16 | Cc1c(-c2[nH]c3sc(-c4cccc(C5CCN(CC(N)=O)CC5)c4)c(C)c3c2C(C)C)cn2ncnc2c1C [Example 223] | 15.5 | 66.5 | – | –
17 | Cc1c(-c2[nH]c3sc(-c4cnc(C5CCNCC5)nc4)c(C)c3c2C(C)C)cn2ncnc2c1C [Example 224] | 1.24 | 3.68 | – | –
18 | Cc1c(-c2[nH]c3sc(C4C[C@H]5CC[C@@H]4N5)c(C)c3c2C(C)C)cn2ncnc2c1C (some centres unmarked) [Example 225] | – | – | 0.47 | 6.12
19 | Cc1c(-c2[nH]c3sc(-c4cnc(C5CCN(CC(N)=O)CC5)nc4)c(C)c3c2C(C)C)cn2ncnc2c1C [Example 226] | 4.14 | 1 | – | –
20 | Cc1c(-c2[nH]c3sc(C4C[C@H]5CC[C@@H]4N5CC(N)=O)c(C)c3c2C(C)C)cn2ncnc2c1C (some centres unmarked) [Example 227] | – | – | 5.07 | 15.5
21 | Cc1c(-c2[nH]c3sc(C4CCC45CNC5)c(C)c3c2C(C)C)cn2ncnc2c1C (centres unmarked) [Example 228, 5-(7,8-dimethyl-[1,2,4]triazolo[1,5-a]pyridin-6-yl)-4-isopropyl-3-methyl-2-(2-azaspiro[3.3]heptan-5-yl)-6H-thieno[2,3-b]pyrrole] | 8.77 | 76.2 | – | –
22 | Cc1c(C2CCN(CC(N)=O)CC2)sc2[nH]c(-c3ccc(C#N)c4ncccc34)c(C(C)C)c12 [Example 230] | 0.81 | 14 | – | –
23 | Cc1c(C2CCN(CC(N)=O)CC2)sc2[nH]c(C3=NC(C)c4ncccc43)c(C(C)C)c12 (centres unmarked) [Example 232] | 0.83 | 18.8 | – | –
24 | Cc1cc(-c2[nH]c3sc(C4CCN(CC(N)=O)CC4)c(C)c3c2C(C)C)cn(C)c1=O [Example 234] | 4.25 | 10.6 | – | –
25 | Cc1cc2ncnn2cc1-c1[nH]c2sc(C3CCN(CC(N)=O)CC3)c(C)c2c1C(C)C [Example 235] | 10.1 | 48.8 | – | –

Second part, led by results:

Row | EC50 (TLR7; [1]) [nM] | EC50 (TLR8; [2]) [nM] | SMILES | EC50 (TLR7; TLR-7 EC50, human PBMCs) [nM] | EC50 (TLR8; TLR-8 EC50, human PBMCs) [nM]
26 | 1.94 | 21.8 | Cc1c(C2CCN(CC(N)=O)CC2)sc2[nH]c(-c3cc(C)c4nnnn4c3)c(C(C)C)c12 [Example 236] | – | –
27 | 0.29 | 69.3 | Cc1c(C2CCN(CC(N)=O)CC2)sc2[nH]c(-c3cc(C)c4nccn4c3)c(C(C)C)c12 [Example 237] | – | –
28 | 0.09 | 8.94 | COc1cc(-c2[nH]c3sc(C4CCNCC4)c(C)c3c2C(C)C)cn2ncnc12 [Example 246, 4-isopropyl-5-(8-methoxy-[1,2,4]triazolo[1,5-a]pyridin-6-yl)-3-methyl-2-(piperidin-4-yl)-6H-thieno[2,3-b]pyrrole] | – | –
29 | 0.2 | 13.5 | Cc1c(C2CCNCC2)sc2[nH]c(-c3ccc(C#N)c4ncccc34)c(C(C)C)c12 [Example 247] | – | –
30 | 11.5 | 106 | Cc1c(C2CCNCC2)sc2[nH]c(-c3ccc(C#N)c4nccnc34)c(C(C)C)c12 [Example 248] | – | –
31 | 0.32 | 3.02 | Cc1c(C2CCNCC2)sc2[nH]c(-c3cn(C)c4ncccc34)c(C(C)C)c12 [Example 249] | – | –
32 | 0.34 | 3.59 | Cc1cc(-c2[nH]c3sc(C4CCNCC4)c(C)c3c2C(C)C)cn(C)c1=O [Example 250] | – | –
33 | 0.13 | 8.16 | Cc1c(C2CCNCC2)sc2[nH]c(-c3cc(C)c4nnnn4c3)c(C(C)C)c12 [Example 251] | – | –
34 | 0.07 | 34.2 | Cc1c(C2CCNCC2)sc2[nH]c(-c3cc(C)c4nccn4c3)c(C(C)C)c12 [Example 252] | – | –
35 | 0.1 | 1.06 | Cc1c(-c2[nH]c3sc(C4C[C@@H]5C[C@H]4CC5NC4COC4)c(C)c3c2C(C)C)cn2ncnc2c1C (stereo partly drawn) [Example 253, N-((1S,4S)-5-(5-(7,8-dimethyl-[1,2,4]triazolo[1,5-a]pyridin-6-yl)-4-isopropyl-3-methyl-6H-thieno[2,3-b]pyrrol-2-yl)bicyclo[2.2.1]heptan-2-yl)oxetan-3-amine] | – | –
36 | 0.38 | 3.64 | Cc1c(-c2[nH]c3sc(C4C[C@@H]5C[C@H]4CC5N4CC5(C4)CS(=O)(=O)C5)c(C)c3c2C(C)C)cn2ncnc2c1C (some centres unmarked) [Example 254] | – | –
37 | 1.22 | 21.4 | Cc1c(-c2[nH]c3sc(C4C[C@@H]5C[C@H]4CC5N4CCS(=N)(=O)CC4)c(C)c3c2C(C)C)cn2ncnc2c1C (some centres unmarked) [Example 255] | – | –
38 | 2.31 | 29.2 | Cc1c(-c2[nH]c3sc(C4C[C@@H]5C[C@H]4CC5N4CCS(=O)(=O)CC4)c(C)c3c2C(C)C)cn2ncnc2c1C (some centres unmarked) [Example 256] | – | –
39 | 1.29 | 7.58 | Cc1c(-c2[nH]c3sc(C4C[C@@H]5C[C@H]4CC5N4CCNC(=O)C4)c(C)c3c2C(C)C)cn2ncnc2c1C (some centres unmarked) [Example 257] | – | –
40 | 0.89 | 13.6 | Cc1cc(-c2[nH]c3sc(C4CCNCC4)c(CO)c3c2C(C)C)cn2ncnc12 [Example 258, (4-isopropyl-5-(8-methyl-[1,2,4]triazolo[1,5-a]pyridin-6-yl)-2-(piperidin-4-yl)-6H-thieno[2,3-b]pyrrol-3-yl)methanol] | – | –

Reference: patent publication US11661431B2, “Thienopyrrole compounds” (Gilead Sciences, Inc., priority 2021, dated 2023)
